The source of these data is ChEMBL document CHEMBL1132639, “2-Amino-4-benzyl-4,5,6,7-tetrahydrothiazolo[5,4-c]pyridines: novel selective beta3-adrenoceptor agonists” (J Med Chem, 1999).

The Ki is the equilibrium dissociation constant of an inhibitor or competing ligand from its target. Higher therefore signals weaker binding.

Assay [1] has as its target T1, Beta-3 adrenergic receptor (Homo sapiens, UniProt P13945). As to the kind of experiment: Drug concentration which produces cAMP response equal to 50% of its maximal response against human beta-3-adrenoceptor in chinese hamster ovary cells was determined; Not active. In kind it is functional, cell-based.
Target sequence in this assay (P13945 whole entry, looked up): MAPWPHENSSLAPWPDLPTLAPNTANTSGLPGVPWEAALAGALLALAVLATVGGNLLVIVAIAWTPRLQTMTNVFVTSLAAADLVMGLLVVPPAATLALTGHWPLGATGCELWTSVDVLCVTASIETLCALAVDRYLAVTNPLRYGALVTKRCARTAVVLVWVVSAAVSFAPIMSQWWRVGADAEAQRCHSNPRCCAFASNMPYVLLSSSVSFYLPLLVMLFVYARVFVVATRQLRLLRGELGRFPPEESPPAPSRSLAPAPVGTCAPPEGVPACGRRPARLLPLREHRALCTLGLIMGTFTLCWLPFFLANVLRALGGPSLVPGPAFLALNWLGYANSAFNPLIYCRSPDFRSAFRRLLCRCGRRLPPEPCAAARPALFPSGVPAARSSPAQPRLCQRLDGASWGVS
Assay [2] has as its target Beta-1 adrenergic receptor (Homo sapiens) (UniProt P08588). The conditions noted are these: ovary.
Assay [3] deals with Beta-2 adrenergic receptor (Homo sapiens) (UniProt P07550). As to the kind of experiment: Drug concentration which produces cAMP response equal to 50% of its maximal response against human beta-2-adrenoceptor in chinese hamster ovary cells was determined; Not active. In kind it is functional, cell-based.
Chain of Beta-2 adrenergic receptor (Homo sapiens) (P07550 whole entry, looked up): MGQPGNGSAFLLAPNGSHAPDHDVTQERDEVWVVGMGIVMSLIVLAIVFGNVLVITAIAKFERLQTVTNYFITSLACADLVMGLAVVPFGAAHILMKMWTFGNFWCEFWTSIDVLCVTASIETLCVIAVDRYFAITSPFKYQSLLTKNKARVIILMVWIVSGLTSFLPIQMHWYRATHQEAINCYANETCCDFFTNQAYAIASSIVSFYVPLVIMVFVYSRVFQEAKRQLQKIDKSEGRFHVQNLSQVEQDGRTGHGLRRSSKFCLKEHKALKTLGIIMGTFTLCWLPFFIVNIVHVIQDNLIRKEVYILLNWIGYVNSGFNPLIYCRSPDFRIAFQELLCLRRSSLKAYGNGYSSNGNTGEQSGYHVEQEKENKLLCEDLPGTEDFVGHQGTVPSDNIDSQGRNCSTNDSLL
Assay [4] concerns the target T1, Beta-3 adrenergic receptor. The conditions noted are these: ovary.
Target sequence in this assay (P13945 whole entry, looked up): as the sequence (P13945 whole entry, looked up) above
Description: Drug concentration which produces cAMP response equal to 50% of its maximal response against human beta-3-adrenoceptor expressed in chinese hamster ovary cells was determined
For assay [5], the target named is Beta-1 adrenergic receptor (Homo sapiens) (UniProt P08588). The conditions noted are these: ovary. The source holds these as a separate data set.
Chain of Beta-1 adrenergic receptor (Homo sapiens) (P08588 whole entry, looked up): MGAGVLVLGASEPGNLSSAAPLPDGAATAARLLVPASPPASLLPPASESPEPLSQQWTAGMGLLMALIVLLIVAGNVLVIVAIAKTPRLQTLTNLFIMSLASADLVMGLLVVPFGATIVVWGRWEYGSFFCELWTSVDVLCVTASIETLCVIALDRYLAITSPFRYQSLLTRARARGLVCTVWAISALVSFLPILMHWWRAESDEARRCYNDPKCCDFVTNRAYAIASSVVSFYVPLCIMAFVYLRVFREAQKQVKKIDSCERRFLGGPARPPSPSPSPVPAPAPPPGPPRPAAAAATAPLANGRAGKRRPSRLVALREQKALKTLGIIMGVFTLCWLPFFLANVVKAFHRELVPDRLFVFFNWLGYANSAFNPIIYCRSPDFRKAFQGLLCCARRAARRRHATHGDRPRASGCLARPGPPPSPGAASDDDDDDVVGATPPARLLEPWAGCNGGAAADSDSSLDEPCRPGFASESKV
Description: Drug concentration which produces cAMP response equal to 50% of its maximal response against human beta-1-adrenoceptor in chinese hamster ovary cells was determined
Assay [6] has as its target Beta-2 adrenergic receptor (Homo sapiens) (UniProt P07550). The settings on record: ovary.
Assay [7] has as its target T1, Beta-3 adrenergic receptor. As to the kind of experiment: Intrinsic activity expressed as the percentage of maximal analogue response relative to the maximal response(100%) of isoproterenol against human beta-3-adrenoceptor using CRE-LUC assay. In kind it is functional.
Target sequence in this assay (P13945 whole entry, looked up): as the sequence (P13945 whole entry, looked up) above
Assay [8] addresses Beta-1 adrenergic receptor (Homo sapiens) (UniProt P08588). As to the kind of experiment: Intrinsic activity expressed as the percentage of maximal analogue response relative to the maximal response(100%) of isoproterenol against human beta-1-adrenoceptor using CRE-LUC assay. In kind it is functional.
For assay [9], the target named is T1, Beta-3 adrenergic receptor. As to the kind of experiment: Intrinsic activity expressed as the percentage of maximal analogue response relative to the maximal response(100%) of isoproterenol against human beta-3-adrenoceptor. In kind it is functional.
Target sequence in this assay (P13945 whole entry, looked up): as above
Assay [10] deals with Beta-1 adrenergic receptor (Homo sapiens) (UniProt P08588). As to the kind of experiment: Intrinsic activity expressed as the percentage of maximal analogue response relative to the maximal response(100%) of isoproterenol against human beta-1-adrenoceptor. In kind it is functional.
For assay [11], the target named is T1, Beta-3 adrenergic receptor. As to the kind of experiment: Drug concentration which produces cAMP response equal to 50% of its maximal response against human beta 3-adrenoceptor in chinese hamster ovary cells was determined. Format: functional, cell-based.
Target sequence in this assay (P13945 whole entry, looked up): as above
For assay [12], the target named is Beta-2 adrenergic receptor (Homo sapiens) (UniProt P07550).
The target in assay [13] is Beta-1 adrenergic receptor (Homo sapiens) (UniProt P08588).
In assay [14] the target is T1, Beta-3 adrenergic receptor. As to the kind of experiment: Drug concentration which produces a cAMP response equal to 50% of its maximal response against human beta-3-adrenoceptor using CRE-LUC assay. Format: functional.
Target sequence in this assay (P13945 whole entry, looked up): as above
The target of assay [15] is Beta-2 adrenergic receptor (Homo sapiens) (UniProt P07550). The conditions noted are these: ovary. The source holds these as a separate data set.
Assay [16] deals with T1, Beta-3 adrenergic receptor. As to the kind of experiment: Binding Affinity against human Beta-3 adrenergic receptor expressed in Chinese hamster ovary(CHO) cells was measured by using [125I]ICYP radioligand. Format: cell-based.
Target sequence in this assay (P13945 whole entry): as the sequence (P13945 whole entry, looked up) above

Activity calls are given as the source filed them. The calls are words filed in the database; no cut-off is given here.

`COc1c(I)cc(CC2NCCc3nc(NC(C)=O)sc32)cc1I` (stereo not drawn): the pKact result in [1], in assay [2] and in [3] was “inactive” in each case.
In turn, `CC(C)NCC(O)c1ccc(O)c(O)c1` (stereo not drawn) had a pKact in assay [4] of 7.37.
Turning to `COc1cc(C[C@@H]2NCCc3cc(O)c(O)cc32)cc(OC)c1OC`, the pKact in [4] was determined as 8.6; in [5], 8.7; in [6], 8.33.
As to `COc1cc(CCNCCc2cnc(N)s2)cc(OC)c1OC`, the pKact result in assay [1], in [2] and in assay [3] was “inactive” in each case. Further, the Intrinsic activity in assay [7] and in assay [8] was under 10 each time.
In the case of `COc1cc(CC2NCCc3nc(N)sc32)cc(OC)c1OC` (stereo not drawn), the Intrinsic activity was 54 in [9] and under 10 in [10]. This molecule yielded a pKact in assay [4] of 5.06. In addition, the pKact entry in assay [2] and in assay [3] was “inactive” throughout.
For `COc1c(I)cc(CC2NCCc3nc(N)sc32)cc1I` (stereo not drawn), the pKact in assay [11] was 6.95; in assay [14], 6.71. In addition, the pKact result in [12], in assay [13], in assay [15] and in assay [2] was “inactive” each time. Moreover, the Intrinsic activity in assay [7] was 62.
Regarding `COc1c(I)cc(CC2NCCc3cc(O)c(O)cc32)cc1I` (stereo not drawn), the pKact in [4] came to 8.76; in assay [5] it was 8.11; in assay [6], 8.47. This molecule also had a Ki in assay [16] of 21.4 nM.
